Structures can show the parent of a compound that is named as a salt. Where two headings read alike, the source gives them in different places.
Legend:
[1] = system: blood glutamate; experiment: Blood glutamate lowering in healthy animals; type: in vivo, rat; settings: healthy rats; for percentage of blood glutamate lowering (respect to basal levels): riboflavin 1, 10 and 50 mg/Kg i.v.
Description: Experimental protocols were approved by the local Animal Care Committee according to the European Union (EU) rules (86/609/CEE, 2003/65/CE and 2010/63/EU). Male Sprague-Dawley rats (Harlan Laboratories, Barcelona, Spain) with an average weight of 350 g were used. Rats were watered and fed ad libitum. The dose-response effect of riboflavin on blood glutamate lowering was determined in healthy animals. Three (3) doses of riboflavin were tested (i.v.), 1, 10 and 50 mg/Kg (weight of animal). As control group was used animals treated with saline (0.9% of NaCl, pH adjusted to 7.4), and as positive control group, animals treated with oxaloacetate 35 mg/Kg. […] A total of 6 animals per group were included in this study. […] With this purpose, dose of 35mg/Kg (average weight of animals: 350 g) of oxaloacetate (Ref 171263, Sigma) was prepared in a saline solution (0.9% of NaCl, pH adjusted to 7.4) at a final concentration of 12.25 mg/mL. Dose of 15 mg/Kg of oxaloacetate was prepared in saline solution (0.9% of NaCl, pH adjusted to 7.4) at a final concentration of 5.25 mg/mL. Dose of 1 mg/Kg of riboflavin (Ref. 4500, Sigma) initially dissolved in a minimal amount of dimethyl sulfoxide (DMSO) and then dissolved in a saline solution (0.9% of NaCl, pH adjusted to 7.4) at a final concentration of 0.35 mg/mL. […] Serum samples were collected in test tubes, centrifuged at 3000 r.p.m. for 7 min, serum was removed and immediately frozen and stored at −80 ° C. Serum glutamate concentration was determined by means of Glutamate Assay Kit (Abnova, Taipei City, Taiwan) following the manufacturer's technical specifications.

[2] = system: blood glutamate; experiment: Blood glutamate in ischemic (MCAO) animals; type: in vivo, rat; settings: MCAO rats, 2 hours after administration
Description: Treatments were administered after artery reperfusion (45 min after occlusion). A total of 10 animals per group were included in this study. […] Infarct volume analysis were evaluated during the occlusion (30 min after occlusion), and 24h and 7 days after ischemia induction. Infarct volume determined at 30 min after artery occlusion (analyzed by diffusion weighted imaging, DWI) (Perez-Mato, M., et al., Cell Death Dis., 2014, 5:e992) was determined before treatments administration to confirm that all animals included in the study were submitted to the same ischemic insult. These values were used as basal infarct volume. […] With this purpose, dose of 35mg/Kg (average weight of animals: 350 g) of oxaloacetate (Ref 171263, Sigma) was prepared in a saline solution (0.9% of NaCl, pH adjusted to 7.4) at a final concentration of 12.25 mg/mL. […] Dose of 1 mg/Kg of riboflavin (Ref. 4500, Sigma) initially dissolved in a minimal amount of dimethyl sulfoxide (DMSO) and then dissolved in a saline solution (0.9% of NaCl, pH adjusted to 7.4) at a final concentration of 0.35 mg/mL. […] Serum samples were collected in test tubes, centrifuged at 3000 r.p.m. for 7 min, serum was removed and immediately frozen and stored at −80 ° C. Serum glutamate concentration was determined by means of Glutamate Assay Kit (Abnova, Taipei City, Taiwan) following the manufacturer's technical specifications. […]

[3] = target: T1, succinate dehydrogenase (SDH) (Homo sapiens, UniProt P31040); experiment: Complex II Enzyme Activity Microplate Assay (SDH inhibition); type: biochemical; settings: dose-response curve, FIG. 1; enzyme extracted from HepG2 cells
T1 construct: endogenous in cells; host or cells: HepG2 (ATCC HB-8065); complex captured with Abcam Complex II Enzyme Activity Microplate Assay ab109908
Description: To evaluate possible toxic effects on SDH, a secondary assay was set up, using Complex II Enzyme Activity Microplate Assay (from Abcam, ref. ab109908), based on the detection of 2,6-diclorophenolindophenol (DCPID), blue, which is reduced in contact with Ubiquinol, turning colorless and involving the measurement of a decrease in absorbance at 595 nm. The enzyme was extracted from HepG2 cells (ATCC, ref. HB-8065), following manufacturer's instructions.

[4] = target: T2, recombinant human GOT (Homo sapiens, UniProt P17174); experiment: GOT activity assay (inhibition of glutamate formation), photometric kit; type: biochemical; settings: for Maximum of inhibition of glutamate formation in confirmatory assay (%): confirmatory dose-response assay
T2 construct: purchased Abcam ab99147

[5] = system: MCAO rats; experiment: Infarct volume by MRI in MCAO rats; type: in vivo, rat; settings: riboflavin 1 mg/Kg, 24 h and 7 days after ischemia
Description: Four (4) experimental groups were performed: 1) a control group treated with saline (0.9% of NaCl, pH adjusted to 7.4), 2) a group treated with riboflavin 1 mg/Kg, 3) a group treated with riboflavin 1 mg/Kg in combination with dose of oxaloacetate a non-effective (15 mg/Kg) and 4) a positive control group treated with oxaloacetate 35 mg/Kg. […] Treatments were administered after artery reperfusion (45 min after occlusion). A total of 10 animals per group were included in this study. […] Infarct volume analysis were evaluated during the occlusion (30 min after occlusion), and 24h and 7 days after ischemia induction. Infarct volume determined at 30 min after artery occlusion (analyzed by diffusion weighted imaging, DWI) (Perez-Mato, M., et al., Cell Death Dis., 2014, 5:e992) was determined before treatments administration to confirm that all animals included in the study were submitted to the same ischemic insult. These values were used as basal infarct volume. […] Infarct volume, also referred herein as infarct size, was assessed by means of magnetic resonance imaging (MRI). […] Infarct volumes were determined from (ADC maps) and T2-weighted images by manually selecting areas of reduced ADC values or hyperintense T2 signal by a researcher blinded to the animal protocols.

[6] = dose-response curve, FIG. 1, read-out: IC50 (GOT)
[7] = inhibition of glutamate formation, confirmatory assay, read-out: IC50(μM) in confirmatory assay

T2 sequence (P17174 whole entry): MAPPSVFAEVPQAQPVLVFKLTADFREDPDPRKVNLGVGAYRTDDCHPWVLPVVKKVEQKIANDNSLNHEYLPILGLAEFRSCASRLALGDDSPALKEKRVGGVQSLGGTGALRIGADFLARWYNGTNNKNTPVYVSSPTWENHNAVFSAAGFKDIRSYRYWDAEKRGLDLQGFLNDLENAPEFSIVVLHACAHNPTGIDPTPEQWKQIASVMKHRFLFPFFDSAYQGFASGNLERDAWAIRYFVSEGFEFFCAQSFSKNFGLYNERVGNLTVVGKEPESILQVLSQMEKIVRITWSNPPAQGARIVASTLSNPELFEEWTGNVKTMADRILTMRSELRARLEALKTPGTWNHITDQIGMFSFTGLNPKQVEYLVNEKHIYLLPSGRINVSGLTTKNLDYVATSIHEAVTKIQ
T1 sequence (P31040 43-664): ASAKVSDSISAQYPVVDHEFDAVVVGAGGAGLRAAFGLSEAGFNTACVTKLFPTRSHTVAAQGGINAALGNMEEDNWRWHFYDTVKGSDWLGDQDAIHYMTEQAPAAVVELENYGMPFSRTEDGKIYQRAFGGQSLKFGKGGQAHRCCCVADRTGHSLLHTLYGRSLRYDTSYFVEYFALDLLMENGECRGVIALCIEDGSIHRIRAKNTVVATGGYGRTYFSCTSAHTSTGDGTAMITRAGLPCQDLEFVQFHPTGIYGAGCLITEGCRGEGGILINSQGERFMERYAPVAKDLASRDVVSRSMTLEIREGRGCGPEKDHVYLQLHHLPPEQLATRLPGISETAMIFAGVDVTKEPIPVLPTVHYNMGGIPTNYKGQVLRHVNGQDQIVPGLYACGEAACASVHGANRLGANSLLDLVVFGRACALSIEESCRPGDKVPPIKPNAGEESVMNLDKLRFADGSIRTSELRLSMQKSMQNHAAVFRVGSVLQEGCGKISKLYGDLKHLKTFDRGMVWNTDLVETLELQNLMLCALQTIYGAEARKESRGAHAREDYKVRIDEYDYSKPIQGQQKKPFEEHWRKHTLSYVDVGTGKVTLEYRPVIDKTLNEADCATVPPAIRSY
T1 sequence (P21912 29-280 partner): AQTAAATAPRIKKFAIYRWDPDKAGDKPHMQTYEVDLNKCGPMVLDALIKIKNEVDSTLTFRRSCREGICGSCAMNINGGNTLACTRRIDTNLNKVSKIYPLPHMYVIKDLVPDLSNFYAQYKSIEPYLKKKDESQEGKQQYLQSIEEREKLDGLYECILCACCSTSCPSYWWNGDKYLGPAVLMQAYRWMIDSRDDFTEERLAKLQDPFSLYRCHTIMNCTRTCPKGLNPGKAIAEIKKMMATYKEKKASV
T1 sequence (Q99643 30-169 partner): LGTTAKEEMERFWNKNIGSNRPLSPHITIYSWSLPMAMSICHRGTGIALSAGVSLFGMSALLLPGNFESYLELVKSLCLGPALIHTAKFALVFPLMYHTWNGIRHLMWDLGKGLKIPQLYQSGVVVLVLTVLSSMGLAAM
T1 sequence (O14521 57-159 partner): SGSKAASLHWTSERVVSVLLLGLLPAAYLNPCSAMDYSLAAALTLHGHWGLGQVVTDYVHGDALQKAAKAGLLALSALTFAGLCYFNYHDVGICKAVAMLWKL

IC50 [3] [µM] | IC50 [4, 6] [µM] | Compound | Maximum of inhibition of glutamate formation in confirmatory assay (%) [4] [%] | IC50 [4, 7] [µM] | also measured
1.8 | 130 | O=C(O)CC(=O)C(=O)O [oxaloacetate, 3-carboxy-3-oxopropanoate] |  |  | percentage of glutamate levels reduction ([1]; oxaloacetate 35 mg/Kg i.v., 2, 4 and 6 hours): ≤ 40%; reduction of blood glutamate levels ([1]; oxaloacetate 35 mg/Kg i.v., 30 min): no effect; reduction of blood glutamate levels respect to basal levels ([2]; oxaloacetate 35 mg/Kg at reperfusion): about 30%
 |  | CC(CCc1ccc(O)cc1)NCCc1ccc(O)c(O)c1 (centres unmarked) [CBG000332, Dobutamine hydrochloride] | 35.5 | 81.7 | 
 |  | CN1CCc2cccc3c2[C@H]1Cc1ccc(O)c(O)c1-3.CN1CCc2cccc3c2[C@H]1Cc1ccc(O)c(O)c1-3.Cl.Cl.O [CBG000083, R-(−)-Apomorphine hydrochloride hemihydrate] | 56.5 | 58.1 | 
 |  | (−)-3-(3,4-Dihydroxyphenyl)-2-methyl-L-alanine sesquihydrate [CBG000361] | 38.5 | 117 | 
 |  | Doxycycline hyclate [CBG000814] | 32 | 15.1 | 
10.8 | 1.9 | Cc1cc2nc3c(=O)[nH]c(=O)nc-3n(C[C@H](O)[C@H](O)[C@H](O)CO)c2cc1C [CBG000592, 7,8-dimethyl-10-[(2S,3S,4R)-2,3,4,5-tetrahydroxypentyl]benzo[g]pteridine-2,4-dione] | 63 | 1.96 | percentage of blood glutamate lowering (respect to basal levels) ([1]; 30 min): about 25%; percentage of blood glutamate lowering (respect to basal levels) ([1]; 2 h): about 50%; percentage of blood glutamate lowering (respect to basal levels) ([1]; 4 h): 60%; percentage of blood glutamate lowering (respect to basal levels) ([1]; 6 h): 50%; reduction of blood glutamate levels respect to basal levels ([2]; riboflavin 1 mg/Kg at reperfusion): about 30%; lesion size (infarct volume) versus control [5]: significant (p<0.001) decrease of lesion size

— US20180153897A1, “RIBOFLAVIN FOR THE TREATMENT OF ISCHEMIC STROKE AND/OR OTHER GLUTAMATE EXCITOTOXICITY-ASSOCIATED DISEASES” (priority 2015, published 2018)
